Test results published in patent publication US6362369B1, “Phthalic acid diamide derivatives fluorine-containing aniline compounds as starting material, agricultural and horticultural insecticides, and a method for application of the insecticides” (Nihon Nohyaku Co., Ltd., priority 1997, dated 2002).

Assays:
Format in all cases: in vivo
[1] = system: common cutworm (Spodoptera Litura); experiment: Insecticidal effect on common cutworm (Test Example 2); details: 500 ppm, 25° C.; for Insecticidal effect, Test Example 2: common cutworm second-instar larvae, cabbage leaf immersed, eight days after inoculation; for Insecticidal effect (Test Example 2), judged from mortality: cabbage leaf dip, second-instar larvae of common cutworm, 8 days after inoculation
Summary of the method: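 Mortality is the read-out: larvae are counted as dead or alive on day 8 and the percentage is graded by an effect criterion. Second-instar larvae are kept with the air-dried treated material in a sealed dish at 25° C, in triplicate groups of ten.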

[2] = system: rice leafroller (Cnaphalocrocis medinalis); experiment: Insecticidal effect on rice leafroller (Test Example 3); details: 500 ppm, 25° C., humidity 70%; for Insecticidal effect, Test Example 3: rice leafroller third-instar larvae, rice lamina immersed, four days after inoculation; for Insecticidal effect (Test Example 3), judged from mortality: rice lamina dip, third-instar larvae of rice leafroller, 4 days after inoculation
Summary of the method: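 Groups of 10 third-instar larvae, in triplicate, are placed on air-dried lamina resting on wet filter paper. Incubation runs four days at 25° C with 70% humidity before survivors and dead are tallied.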

[3] = system: diamondback moth (Plutella xylostella); experiment: Insecticidal effect on diamondback moth (Test Example 1); details: diamondback moth; for Insecticidal effect, Test Example 1: mortality judged by criterion of Test Example 1; for Insecticidal effect (Test Example 1), judged from mortality: judged by the criterion of Test Example 1
Summary of the method: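 Eggs laid by adult moths on Chinese cabbage seedlings, which were immersed in test solution, air-dried and kept at 25 °C. Hatched insects counted 6 days after immersion and mortality calculated, with effect graded by criterion; triplicate groups of 10 insects.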

Compound | Insecticidal effect, Test Example 2 [1] | Insecticidal effect, Test Example 3 [2] | Insecticidal effect, Test Example 1 [3] | Insecticidal effect (Test Example 2), judged from mortality [1] | Insecticidal effect (Test Example 3), judged from mortality [2] | Insecticidal effect (Test Example 1), judged from mortality [3]
Cc1cc(C(F)(F)C(F)(F)F)ccc1NC(=O)c1cccc(Cl)c1C(=O)NC(C)c1ccccc1Cl (stereo not drawn) [compound 1362] | A (100) | A (100) | A (100) |  |  | 
Cc1cc(C(F)(F)C(F)(F)F)ccc1NC(=O)c1cccc(Cl)c1C(=O)NC(C)c1cccc(Cl)c1 (stereo not drawn) [compound 1364] | A (100) | A (100) | A (100) |  |  | 
Cc1cc(C(F)(F)C(F)(F)F)ccc1NC(=O)c1cccc(Cl)c1C(=O)NC(C)c1ccc(Cl)cc1 (stereo not drawn) [compound 1366] | A (100) | A (100) | A (100) |  |  | 
CC(C)NC(=O)c1c(Cl)cccc1C(=O)Nc1ccc(C(F)(F)C(F)(F)F)cc1F [compound 1382] | A (100) | A (100) | A (100) |  |  | 
CC(C)NC(=O)c1c(Cl)cccc1C(=O)Nc1ccc(C(F)(F)C(F)(F)F)cc1Cl [compound 1383] | A (100) | A (100) | A (100) |  |  | 
CC(C)NC(=O)c1c(Cl)cccc1C(=O)Nc1ccc(C(F)(F)C(F)(F)F)cc1C(F)(F)F [compound 1384] | A (100) | A (100) | A (100) |  |  | 
CC(C)NC(=O)c1c(I)cccc1C(=O)Nc1ccc(C(F)(F)C(F)(F)F)cc1F [compound 1385] | A (100) | A (100) | A (100) |  |  | 
CC(C)NC(=O)c1c(I)cccc1C(=O)Nc1ccc(C(F)(F)C(F)(F)F)cc1Cl [compound 1386] | A (100) | A (100) | A (100) |  |  | 
CC(C)NC(=O)c1c(I)cccc1C(=O)Nc1ccc(C(F)(F)C(F)(F)F)cc1C(F)(F)F [compound 1387] | A (100) | A (100) | A (100) |  |  | 
COc1cc(C(F)(F)C(F)(F)F)ccc1NC(=O)c1cccc(I)c1C(=O)NC(C)C [compound 1388] | D (79-50) | A (100) | A (100) |  |  | 
Cc1cc(C#N)ccc1NC(=O)c1cccc(I)c1C(=O)NC(C)C [compound 1389] | A (100) | A (100) | A (100) |  |  | 
Cc1cc(C(F)(F)C(F)(F)F)ccc1NC(=O)c1cccc(Cl)c1C(=O)NCCCO [compound 1399] | A (100) | A (100) | A (100) |  |  | 
Cc1cc(C(F)(F)C(F)(F)F)ccc1NC(=O)c1cccc(I)c1C(=O)NCc1ccccc1 [compound 1400] | A (100) | A (100) | A (100) |  |  | 
Cc1cc(C(F)(F)C(F)(F)F)ccc1NC(=O)c1cccc(I)c1C(=O)NCc1ccccc1Cl [compound 1402] | A (100) | A (100) | A (100) |  |  | 
Cc1ccccc1CNC(=O)c1c(I)cccc1C(=O)Nc1ccc(C(F)(F)C(F)(F)F)cc1C [compound 1404] | C (89-80) | A (100) | A (100) |  |  | 
Cc1cc(C(F)(F)C(F)(F)F)ccc1NC(=O)c1cccc(Cl)c1C(=O)N(C)Cc1ccccc1 [compound 1406] | A (100) | A (100) | A (100) |  |  | 
C#CC(C)(C)NC(=O)c1ccccc1C(=O)Nc1ccc(C(F)(F)C(F)(F)F)cc1C [compound 1414] | A (100) | A (100) | A (100) |  |  | 
Cc1cc(C(F)(F)C(F)(F)F)ccc1NC(=O)c1cccc(Cl)c1C(=O)NC(C)(C)c1ccccc1 [compound 1417] | A (100) | A (100) | A (100) |  |  | 
Cc1cc(C(F)(F)C(F)(F)F)ccc1NC(=O)c1cccc(Cl)c1C(=O)NC(C)(C)Cc1ccccc1 [compound 1418] | A (100) | A (100) | A (100) |  |  | 
CC(C)(C)NC(=O)c1c(I)cccc1C(=O)Nc1ccc(C(F)(F)C(F)(F)F)cc1F [compound 1427] | A (100) | A (100) | A (100) |  |  | 
CC(C)(C)NC(=O)c1c(I)cccc1C(=O)Nc1ccc(C(F)(F)C(F)(F)F)cc1Cl [compound 1428] | A (100) | A (100) | A (100) |  |  | 
CC(C)(C)NC(=O)c1c(I)cccc1C(=O)Nc1ccc(C(F)(F)C(F)(F)F)cc1C(F)(F)F [compound 1429] | A (100) | A (100) | A (100) |  |  | 
Cc1cc(OC(F)F)ccc1NC(=O)c1cccc(I)c1C(=O)NCc1ccccc1 [compound 1430] | D (79-50) | A (100) | A (100) |  |  | 
Cc1cc(C(F)(F)C(F)(F)F)ccc1NC(=O)c1c(Cl)cccc1C(=O)N(C)Cc1ccccc1 [compound 1436] | A (100) | A (100) | A (100) |  |  | 
Cc1cc(C(F)(F)C(F)(F)F)ccc1NC(=O)c1cccc(I)c1C(=O)N(C)Cc1ccccc1 [compound 1438] | A (100) | A (100) | A (100) |  |  | 
Cc1cc(C(F)(F)C(F)(F)F)ccc1NC(=O)c1cccc(Cl)c1C(=O)N[C@@H](C)CO [compound 1445] |  |  |  | A (100) | A (100) | A (100)
CC(C)(C)NC(=O)c1c(Cl)cccc1C(=O)Nc1ccc(C(F)(F)C(F)(F)F)cc1 [compound 1447] |  |  |  | A (100) | A (100) | A (100)
CC(C)(C)NC(=O)c1c(Cl)cccc1C(=O)Nc1ccc(C(F)(F)C(F)(F)F)cc1F [compound 1448] |  |  |  | A (100) | A (100) | A (100)
CC(C)(C)NC(=O)c1c(Cl)cccc1C(=O)Nc1ccc(C(F)(F)C(F)(F)F)cc1Cl [compound 1449] |  |  |  | A (100) | A (100) | A (100)
CCCNC(=O)c1c(I)cccc1C(=O)Nc1ccc(OC(F)F)cc1C [compound 1450] |  |  |  | A (100) | A (100) | A (100)
